Blank lines part the entries; values can stand above or below the compound they belong to.
Tests used:
CYP2E1 [1] = molecular target: T1, CYP2E1 (Homo sapiens, UniProt P05181); assay: in vitro; conditions: for inhibition at 40 min, 33 µM: pH 7.4; for inhibition at 40 min, 16.5 µM / inhibition at 40 min, 66 µM: pH 7.4, Inhibition of CYP 2E1 (%); for inhibition at 40 min, 16.5 µM: tested concentration 16.5 μM; for inhibition at 40 min, 66 µM: tested concentration 66 μM
[2] = molecular target: human liver microsomal cytochrome P450 2E1 (CYP2E1) (Homo sapiens, UniProt P05181); assay: Chlorzoxazone hydroxylation inhibition (6-OH-CZX by LC/MS/MS)
CYP2E1 [3] = molecular target: T1, CYP2E1; assay: as above; conditions: human, microsomes, pH 7.4
[4] = molecular target: cDNA expressed human cytochrome P450 2E1 (CYP2E1) (Homo sapiens, UniProt P05181); conditions: tested concentration 33 μM
Chain of cDNA expressed human cytochrome P450 2E1 (CYP2E1) (P05181 whole entry): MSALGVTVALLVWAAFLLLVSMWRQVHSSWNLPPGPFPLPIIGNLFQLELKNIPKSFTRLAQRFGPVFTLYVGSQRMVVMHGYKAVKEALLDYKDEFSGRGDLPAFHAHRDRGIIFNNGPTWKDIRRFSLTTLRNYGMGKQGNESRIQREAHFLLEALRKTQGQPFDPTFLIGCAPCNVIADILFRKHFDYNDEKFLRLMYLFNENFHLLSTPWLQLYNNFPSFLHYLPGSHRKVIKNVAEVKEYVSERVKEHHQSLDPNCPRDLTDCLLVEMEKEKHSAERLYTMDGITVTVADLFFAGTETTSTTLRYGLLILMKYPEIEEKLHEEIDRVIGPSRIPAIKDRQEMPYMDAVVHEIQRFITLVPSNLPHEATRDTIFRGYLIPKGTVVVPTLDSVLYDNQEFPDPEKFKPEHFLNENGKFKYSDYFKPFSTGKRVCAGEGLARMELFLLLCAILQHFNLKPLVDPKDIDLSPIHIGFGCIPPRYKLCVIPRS

T1 sequence (P05181 whole entry): as above
Chain of human liver microsomal cytochrome P450 2E1 (CYP2E1) (P05181 whole entry): as above

Compound: O=C(O)c1ccc(O)c(O)c1 [Protocatechuic acid]
inhibition at 40 min, 33 µM (CYP2E1 [1]): 19.9 ± 8.95%
inhibition at 40 min, 16.5 µM (CYP2E1 [1]): 25.7 ± 12.7%
inhibition at 40 min, 66 µM (CYP2E1 [1]): 22.8 ± 4.07%

Compound: COc1ccc([C@@H]2CC(=O)c3c(O)cc(O[C@@H]4O[C@H](CO[C@@H]5O[C@@H](C)[C@H](O)[C@@H](O)[C@H]5O)[C@@H](O)[C@H](O)[C@H]4O)cc3O2)cc1O [Hesperidin]
Inhibition of CYP 2E1 (%) ([2]; tested concentration 16.5 μM): 45.32 ± 1.57%
Inhibition of CYP 2E1 (%) ([2]; tested concentration 33 μM): 50.91 ± 2.81%
Inhibition of CYP 2E1 (%) ([2]; tested concentration 66 μM): 58.57 ± 3.78%

Compound: O=C(CCc1ccc(O)cc1)c1c(O)cc(O)cc1O[C@@H]1O[C@H](CO)[C@@H](O)[C@H](O)[C@H]1O [Phloridzin]
inhibition at 40 min, 33 µM (CYP2E1 [1]): 3.76 ± 3.58%
inhibition at 40 min, 16.5 µM (CYP2E1 [1]): 1.25 ± 7.9%
inhibition at 40 min, 66 µM (CYP2E1 [1]): 1.42 ± 9.28%

Compound: O=c1cc(-c2ccc(O)cc2)oc2cc(O)c([C@@H]3O[C@H](CO)[C@@H](O)[C@H](O)[C@H]3O)c(O)c12 [Isovitexin]
inhibition at 30 min, 16.5 µM (CYP2E1 [3]): 59.8 ± 1.41%
inhibition at 30 min, 33 µM (CYP2E1 [3]): 67.6 ± 3.24%
inhibition at 30 min, 66 µM (CYP2E1 [3]): 81.8 ± 1.34%

Compound: COc1ccc([C@@H]2CC(=O)c3c(O)cc(O[C@@H]4O[C@H](CO)[C@@H](O)[C@H](O)[C@H]4O[C@@H]4O[C@@H](C)[C@H](O)[C@@H](O)[C@H]4O)cc3O2)cc1O [Neohesperidin]
Inhibition of CYP 2E1 (%) ([2]; tested concentration 16.5 μM): 42.81 ± 1.75%
Inhibition of CYP 2E1 (%) ([2]; tested concentration 33 μM): 48.96 ± 2.37%
Inhibition of CYP 2E1 (%) ([2]; tested concentration 66 μM): 58.70 ± 1.06%

Compound: O=c1cc(-c2ccccc2)oc2cc(O)c(O)c(O)c12 [Baicalein]
inhibition at 30 min, 16.5 µM (CYP2E1 [3]): 35.3 ± 1.51%
inhibition at 30 min, 33 µM (CYP2E1 [3]): 47.8 ± 3.4%
inhibition at 30 min, 66 µM (CYP2E1 [3]): 50.1 ± 5.11%

Compound: C=CC(=C)CCC=C(C)C [β-Myrcene]
inhibition at 30 min, 16.5 µM (CYP2E1 [3]): 53.4 ± 4.93%
inhibition at 30 min, 33 µM (CYP2E1 [3]): 75.5 ± 2.14%
inhibition at 30 min, 66 µM (CYP2E1 [3]): 76.5 ± 2.18%

Inhibition of CYP 2E1 (%) [4]: 39.83 ± 2.32%
Compound: CCCCC[C@H](O)CC(=O)CCc1ccc(O)c(OC)c1 [6-Gingerol]

Compound: O=C1C[C@@H](c2ccc(O)cc2)Oc2cc(O)cc(O)c21 [Naringenin]
inhibition at 30 min, 16.5 µM (CYP2E1 [3]): 19.5 ± 2.02%
inhibition at 30 min, 33 µM (CYP2E1 [3]): 28.4 ± 2.21%
inhibition at 30 min, 66 µM (CYP2E1 [3]): 45.2 ± 4.43%
inhibition at 40 min, 33 µM (CYP2E1 [1]): 36.8 ± 3.97%
inhibition at 40 min, 16.5 µM (CYP2E1 [1]): 25.1 ± 7.6%
inhibition at 40 min, 66 µM (CYP2E1 [1]): 41.8 ± 3.51%

Compound: COc1ccc(-c2cc(=O)c3c(O)cc(O[C@@H]4O[C@H](CO[C@@H]5O[C@@H](C)[C@H](O)[C@@H](O)[C@H]5O)[C@@H](O)[C@H](O)[C@H]4O)cc3o2)cc1O [Diosmin]
inhibition at 30 min, 16.5 µM (CYP2E1 [3]): 60 ± 1.96%
inhibition at 30 min, 33 µM (CYP2E1 [3]): 43.1 ± 3.57%
inhibition at 30 min, 66 µM (CYP2E1 [3]): 21.6 ± 1.19%

Compound: Oc1cc(O)c2c(c1)O[C@@H](c1ccc(O)c(O)c1)[C@@H](O)C2 [(+)-Epicatechin]
Inhibition of CYP 2E1 (%) ([2]; tested concentration 16.5 μM): 66.71 ± 1.79%
Inhibition of CYP 2E1 (%) ([2]; tested concentration 33 μM): 52.32 ± 1.59%

Compound: COc1ccc(-c2oc3cc(O)cc(O)c3c(=O)c2O)cc1O [Tamarixetin]
inhibition at 30 min, 16.5 µM (CYP2E1 [3]): 37.4 ± 1.96%
inhibition at 30 min, 33 µM (CYP2E1 [3]): 47.8 ± 2.81%
inhibition at 30 min, 66 µM (CYP2E1 [3]): 50.9 ± 3.12%

Compound: O=c1c(O)c(-c2cc(O)c(O)c(O)c2)oc2cc(O)cc(O)c12 [Myricetin]
inhibition at 30 min, 16.5 µM (CYP2E1 [3]): 42.2 ± 2.55%
inhibition at 30 min, 33 µM (CYP2E1 [3]): 59.2 ± 1.27%
inhibition at 30 min, 66 µM (CYP2E1 [3]): 61.6 ± 0.88%

Compound: O=c1cc(-c2ccc(O)cc2)oc2cc(O)cc(O)c12 [Apigenin]
inhibition at 30 min, 16.5 µM (CYP2E1 [3]): 28.9 ± 1.54%
inhibition at 30 min, 33 µM (CYP2E1 [3]): 36.8 ± 1.98%
inhibition at 30 min, 66 µM (CYP2E1 [3]): 47.5 ± 3.66%

Compound: COc1cc(C2Oc3cc([C@H]4Oc5cc(O)cc(O)c5C(=O)[C@@H]4O)ccc3OC2CO)ccc1O (some centres unmarked) [Silybin]
inhibition at 30 min, 16.5 µM (CYP2E1 [3]): 59.5 ± 2.34%
inhibition at 30 min, 33 µM (CYP2E1 [3]): 37.1 ± 1.15%
inhibition at 30 min, 66 µM (CYP2E1 [3]): 39 ± 1.19%

Compound: Oc1cc(O)c2c(c1)O[C@H](c1cc(O)c(O)c(O)c1)[C@H](O)C2 [(−)-Epigallocatechin]
Inhibition of CYP 2E1 (%) ([2]; tested concentration 16.5 μM): 38.95 ± 1.92%
Inhibition of CYP 2E1 (%) ([2]; tested concentration 33 μM): 36.40 ± 2.18%
Inhibition of CYP 2E1 (%) ([2]; tested concentration 66 μM): 57.08 ± 1.85%

Compound: O=C1c2c(O)cc(O)cc2O[C@H](c2ccc(O)c(O)c2)[C@H]1O [(+)-Taxifolin]
inhibition at 40 min, 16.5 µM (CYP2E1 [1]): 22.6 ± 11.7%
inhibition at 40 min, 66 µM (CYP2E1 [1]): 34.5 ± 3.47%

Compound: O=c1c(O)c(-c2ccc(O)c(O)c2)oc2cc(O)cc(O)c12 [Quercetin]
inhibition at 30 min, 16.5 µM (CYP2E1 [3]): 46.4 ± 4.68%
inhibition at 30 min, 33 µM (CYP2E1 [3]): 53 ± 2.17%
inhibition at 30 min, 66 µM (CYP2E1 [3]): 73.3 ± 1.57%

Compound: O=c1c(-c2ccc(O)cc2)coc2c([C@@H]3O[C@H](CO)[C@@H](O)[C@H](O)[C@H]3O)c(O)ccc12 [Puerarin]
inhibition at 40 min, 33 µM (CYP2E1 [1]): -4.64 ± 3.47%
inhibition at 40 min, 16.5 µM (CYP2E1 [1]): 0.43 ± 2.31%
inhibition at 40 min, 66 µM (CYP2E1 [1]): -12.9 ± 2.75%

Compound: (−)-Epicatechin-3-gallate
Inhibition of CYP 2E1 (%) ([2]; tested concentration 16.5 μM): 30.31 ± 1.27%
Inhibition of CYP 2E1 (%) ([2]; tested concentration 33 μM): 34.84 ± 1.72%
Inhibition of CYP 2E1 (%) ([2]; tested concentration 66 μM): 42.92 ± 0.65%

Compound: CCCCCCCCCCCC1=C(O)C(=O)C=C(O)C1=O [Embelin]
inhibition at 40 min, 33 µM (CYP2E1 [1]): 12.3 ± 10.2%
inhibition at 40 min, 16.5 µM (CYP2E1 [1]): 5.95 ± 7.48%
inhibition at 40 min, 66 µM (CYP2E1 [1]): 13.5 ± 11.6%
